According to PMC11111408, “Concurrent inhibition of oncogenic and wild-type RAS-GTP for cancer therapy” (Nature, 2024):

System: PRISM DNA-barcoded human tumour cell lines
Assay: PRISM pooled cell viability assay;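 on PRISM AUC: 8 threefold dilutions from 10 µM with 5 days of exposure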
Type: cell-based
Parameters: AUC (PRISM viability) / AUC (PRISM): unit not given beside the values
Details: for AUC (PRISM viability): WT; for PRISM AUC: KRAS MUT
Protocol: Cells were then lysed in TCL mRNA lysis buffer, and then PCR with reverse transcription was performed. Detection of the barcodes and univariate and multivariate analysis was then performed as previously described. Data analysis is described in the Supplementary Methods. Up-to-date code for our analysis is at the github link: https://github.com/cmap/dockerized_mts.
For every gene with non-silent mutations in at least four cell-lines, we compared the AUC values between cells with and without those mutations using a t-test. This analysis was carried out for: (i) the full dataset; (ii) excluding cell lines with non-silent KRAS mutations; and (iii) excluding cell lines that have either KRAS or NRAS non-silent mutations.

For `CCn1c(-c2cc(N3CCN(C4CC4)CC3)cnc2[C@H](C)OC)c2c3cc(ccc31)-c1csc(n1)C[C@H](NC(=O)[C@H]1[C@@H]3COC[C@@H]31)C(=O)N1CCC[C@H](N1)C(=O)OCC(C)(C)C2` [RMC-7977], the “AUC (PRISM viability)” value (MPP89_PLEURA) was 0.9969, the “AUC (PRISM viability)” value (MSTO211H_PLEURA) was 0.3796 and the “AUC (PRISM viability)” value (NALM6_HAEMATOPOIETIC_AND_LYMPHOID_TISSUE) was 0.7052. For the same molecule, the “AUC (PRISM viability)” value (NB1_AUTONOMIC_GANGLIA) was 0.4921, the “PRISM AUC” value (NCIH23_LUNG) was 0.451 and the “AUC (PRISM viability)” value (NCIH28_PLEURA) was 0.6741. For the same molecule, the “AUC (PRISM viability)” value (NCIH82_LUNG) was 0.581, the “AUC (PRISM viability)” value (NCIH196_LUNG) was 0.9033 and the “AUC (PRISM viability)” value (NCIH226_LUNG) was 0.6197. For the same molecule, the “AUC (PRISM viability)” value (NCIH292_LUNG) was 0.4596, the “AUC (PRISM viability)” value (NCIH322_LUNG) was 0.4865 and the “PRISM AUC” value (NCIH358_LUNG) was 0.1803. For the same molecule, the “PRISM AUC” value (NCIH441_LUNG) was 0.3007, the “AUC (PRISM viability)” value (NCIH446_LUNG) was 0.8555 and the “AUC (PRISM viability)” value (NCIH508_LARGE_INTESTINE) was 0.3599. The “AUC (PRISM viability)” value (NCIH520_LUNG) was 0.7662, the “AUC (PRISM viability)” value (NCIH522_LUNG) was 0.759 and the “AUC (PRISM viability)” value (NCIH524_LUNG) was 0.7662. For the same molecule, the “AUC (PRISM viability)” value (NCIH596_LUNG) was 0.5305, the “PRISM AUC” value (NCIH647_LUNG) was 0.7239 and the “AUC (PRISM viability)” value (NCIH661_LUNG) was 0.7122. The “PRISM AUC” value (NCIH727_LUNG) was 0.5024, the “PRISM AUC” value (NCIH747_LARGE_INTESTINE) was 0.2108 and the “AUC (PRISM viability)” value (NCIH838_LUNG) was 0.8166. For the same molecule, the “AUC (PRISM viability)” value (NCIH841_LUNG) was 0.7846, the “AUC (PRISM viability)” value (NCIH1048_LUNG) was 0.6373 and the “AUC (PRISM viability)” value (NCIH1092_LUNG) was 0.3222. For the same molecule, the “AUC (PRISM viability)” value (NCIH1299_LUNG) was 0.4354, the “PRISM AUC” value (NCIH1339_LUNG) was 0.4553 and the “AUC (PRISM viability)” value (NCIH1341_LUNG) was 0.5477. The “PRISM AUC” value (NCIH1355_LUNG) was 0.4521, the “PRISM AUC” value (NCIH1373_LUNG) was 0.3791 and the “AUC (PRISM viability)” value (NCIH1435_LUNG) was 0.8637. The “AUC (PRISM viability)” value (NCIH1437_LUNG) was 0.5969, the “AUC (PRISM viability)” value (NCIH1563_LUNG) was 0.6189 and the “AUC (PRISM viability)” value (NCIH1568_LUNG) was 0.6734. For the same molecule, the “AUC (PRISM viability)” value (NCIH1581_LUNG) was 0.9998, the “AUC (PRISM viability)” value (NCIH1648_LUNG) was 0.2199 and the “AUC (PRISM viability)” value (NCIH1650_LUNG) was 0.6245. The “AUC (PRISM viability)” value (NCIH1651_LUNG) was 0.8871, the “AUC (PRISM viability)” value (NCIH1693_LUNG) was 0.8183 and the “AUC (PRISM viability)” value (NCIH1694_LUNG) was 0.5791. For the same molecule, the “AUC (PRISM viability)” value (NCIH1703_LUNG) was 0.6825, the “PRISM AUC” value (NCIH1792_LUNG) was 0.2139 and the “AUC (PRISM viability)” value (NCIH1793_LUNG) was 0.6312. The “AUC (PRISM viability)” value (NCIH1838_LUNG) was 0.5855, the “AUC (PRISM viability)” value (NCIH1915_LUNG) was 0.641 and the “PRISM AUC” value (NCIH1944_LUNG) was 0.5331. For the same molecule, the “AUC (PRISM viability)” value (NCIH1975_LUNG) was 0.5382, the “AUC (PRISM viability)” value (NCIH2023_LUNG) was 0.5354 and the “AUC (PRISM viability)” value (NCIH2087_LUNG) was 0.3287. For the same molecule, the “AUC (PRISM viability)” value (NCIH2110_LUNG) was 0.5875, the “PRISM AUC” value (NCIH2122_LUNG) was 0.1883 and the “AUC (PRISM viability)” value (NCIH2126_LUNG) was 0.6292. The “AUC (PRISM viability)” value (NCIH2170_LUNG) was 0.6244, the “AUC (PRISM viability)” value (NCIH2171_LUNG) was 0.8542 and the “AUC (PRISM viability)” value (NCIH2172_LUNG) was 0.765. For the same molecule, the “AUC (PRISM viability)” value (NCIH2228_LUNG) was 0.4232, the “PRISM AUC” value (NCIH2444_LUNG) was 0.2818 and the “AUC (PRISM viability)” value (NCIH2452_PLEURA) was 1. The “AUC (PRISM viability)” value (NCIN87_STOMACH) was 0.7465, the “AUC (PRISM viability)” value (NCO2_HAEMATOPOIETIC_AND_LYMPHOID_TISSUE) was 0.625 and the “AUC (PRISM viability)” value (NIHOVCAR3_OVARY) was 0.7506. The “PRISM AUC” value (NOMO1_HAEMATOPOIETIC_AND_LYMPHOID_TISSUE) was 0.4639, the “AUC (PRISM viability)” value (NUGC3_STOMACH) was 0.3156 and the “AUC (PRISM viability)” value (NUGC4_STOMACH) was 0.304. For the same molecule, the “AUC (PRISM viability)” value (OAW42_OVARY) was 0.7122, the “AUC (PRISM viability)” value (OC314_OVARY) was 0.7084 and the “AUC (PRISM viability)” value (OC316_OVARY) was 0.6527. The “AUC (PRISM viability)” value (OCIAML2_HAEMATOPOIETIC_AND_LYMPHOID_TISSUE) was 0.8145, the “AUC (PRISM viability)” value (OCIAML3_HAEMATOPOIETIC_AND_LYMPHOID_TISSUE) was 0.162 and the “AUC (PRISM viability)” value (OCILY3_HAEMATOPOIETIC_AND_LYMPHOID_TISSUE) was 0.7702. The “AUC (PRISM viability)” value (OCIM1_HAEMATOPOIETIC_AND_LYMPHOID_TISSUE) was 0.5554, the “AUC (PRISM viability)” value (OE19_OESOPHAGUS) was 0.4503 and the “AUC (PRISM viability)” value (OE21_OESOPHAGUS) was 0.4077. The “AUC (PRISM viability)” value (OE33_OESOPHAGUS) was 0.4516, the “AUC (PRISM viability)” value (ONCODG1_OVARY) was 0.8342 and the “AUC (PRISM viability)” value (ONS76_CENTRAL_NERVOUS_SYSTEM) was 0.1792. For the same molecule, the “AUC (PRISM viability)” value (OSRC2_KIDNEY) was 0.7371, the “AUC (PRISM viability)” value (OUMS23_LARGE_INTESTINE) was 0.9107 and the “PRISM AUC” value (OV7_OVARY) was 0.3327. The “PRISM AUC” value (OV56_OVARY) was 0.6812, the “AUC (PRISM viability)” value (OVISE_OVARY) was 0.7216 and the “AUC (PRISM viability)” value (OVKATE_OVARY) was 0.7188. The “AUC (PRISM viability)” value (OVTOKO_OVARY) was 0.7297, the “AUC (PRISM viability)” value (P12ICHIKAWA_HAEMATOPOIETIC_AND_LYMPHOID_TISSUE) was 0.1917 and the “PRISM AUC” value (PANC1_PANCREAS) was 0.7301. For the same molecule, the “PRISM AUC” value (PANC0203_PANCREAS) was 0.1549, the “PRISM AUC” value (PANC0327_PANCREAS) was 0.3885 and the “PRISM AUC” value (PANC0403_PANCREAS) was 0.1969. For the same molecule, the “PRISM AUC” value (PANC0504_PANCREAS) was 0.2677, the “PRISM AUC” value (PANC0813_PANCREAS) was 0.6012 and the “PRISM AUC” value (PANC1005_PANCREAS) was 0.492. The “PRISM AUC” value (PATU8902_PANCREAS) was 0.2883, the “PRISM AUC” value (PATU8988S_PANCREAS) was 0.2608 and the “PRISM AUC” value (PATU8988T_PANCREAS) was 0.5033. For the same molecule, the “AUC (PRISM viability)” value (PC3_PROSTATE) was 0.7599, the “AUC (PRISM viability)” value (PC14_LUNG) was 0.4618 and the “AUC (PRISM viability)” value (PECAPJ15_UPPER_AERODIGESTIVE_TRACT) was 0.4843. The “AUC (PRISM viability)” value (PECAPJ41CLONED2_UPPER_AERODIGESTIVE_TRACT) was 0.3318, the “AUC (PRISM viability)” value (PECAPJ49_UPPER_AERODIGESTIVE_TRACT) was 0.2883 and the “AUC (PRISM viability)” value (PF382_HAEMATOPOIETIC_AND_LYMPHOID_TISSUE) was 0.3397. For the same molecule, the “PRISM AUC” value (PK1_PANCREAS) was 0.3834, the “PRISM AUC” value (PK45H_PANCREAS) was 0.5023 and the “PRISM AUC” value (PK59_PANCREAS) was 0.2749. For the same molecule, the “AUC (PRISM viability)” value (PLCPRF5_LIVER) was 0.7216, the “PRISM AUC” value (PSN1_PANCREAS) was 0.12 and the “PRISM AUC” value (QGP1_PANCREAS) was 0.3907. For the same molecule, the “AUC (PRISM viability)” value (RCC10RGB_KIDNEY) was 0.7484, the “PRISM AUC” value (RCM1_LARGE_INTESTINE) was 0.1259 and the “AUC (PRISM viability)” value (RDES_BONE) was 0.7616. The “AUC (PRISM viability)” value (RD_SOFT_TISSUE) was 0.207, the “AUC (PRISM viability)” value (RERFGC1B_STOMACH) was 0.5427 and the “PRISM AUC” value (RERFLCAD2_LUNG) was 0.4067. For the same molecule, the “AUC (PRISM viability)” value (RERFLCAI_LUNG) was 0.6094, the “AUC (PRISM viability)” value (RERFLCKJ_LUNG) was 0.8949 and the “AUC (PRISM viability)” value (RERFLCMS_LUNG) was 0.7953. For the same molecule, the “AUC (PRISM viability)” value (RH30_SOFT_TISSUE) was 0.6971, the “AUC (PRISM viability)” value (RI1_HAEMATOPOIETIC_AND_LYMPHOID_TISSUE) was 0.7681 and the “PRISM AUC” value (RKN_SOFT_TISSUE) was 0.1266. The “AUC (PRISM viability)” value (RKO_LARGE_INTESTINE) was 0.9515, the “AUC (PRISM viability)” value (RL952_ENDOMETRIUM) was 0.342 and the “AUC (PRISM viability)” value (RL_HAEMATOPOIETIC_AND_LYMPHOID_TISSUE) was 0.7851. For the same molecule, the “AUC (PRISM viability)” value (RMGI_OVARY) was 0.5297, the “AUC (PRISM viability)” value (RMUGS_OVARY) was 0.8312 and the “AUC (PRISM viability)” value (RPMI7951_SKIN) was 0.9756. The “AUC (PRISM viability)” value (RPMI8402_HAEMATOPOIETIC_AND_LYMPHOID_TISSUE) was 0.7828, the “AUC (PRISM viability)” value (RT4_URINARY_TRACT) was 0.5133 and the “AUC (PRISM viability)” value (RT112_URINARY_TRACT) was 0.1516. The “AUC (PRISM viability)” value (RVH421_SKIN) was 0.8566, the “AUC (PRISM viability)” value (SBC5_LUNG) was 0.6474 and the “AUC (PRISM viability)” value (SCABER_URINARY_TRACT) was 0.3752. For the same molecule, the “AUC (PRISM viability)” value (SCC9_UPPER_AERODIGESTIVE_TRACT) was 0.5257.
